Patent US12673918B2, “Small molecule RPN13 inhibitors with antitumor properties” (The Johns Hopkins University, priority 2019, dated 2026)
Read-outs that look alike come from different tables or passages of the source.

Assays:
PEA2 = conditions: read-out: cytotoxicity IC50 PEA2; Tables 3A/4B/4C; MTT assay
PEO4 = conditions: read-out: cytotoxicity IC50 PEO4; Tables 3A/4B/4C; MTT assay
UWB1.289 + BRCA1 = assay: MTT cytotoxicity assay, UWB1.289 + BRCA1; format: cell-based; conditions: Tables 3A/4B/4C, BRCA1 + Ve
HeLa [1] = assay: MTT cytotoxicity assay, HeLa; conditions: read-out: cytotoxicity IC50 HeLa, Tables 3A/4B/4C
SiHa [2] = assay: MTT cytotoxicity assay, SiHa; conditions: read-out: cytotoxicity IC50 SiHa; Tables 3A/4B/4C; MTT assay
KLE = assay: MTT cytotoxicity assay, KLE; conditions: read-out: cytotoxicity IC50 KLE, Tables 3A/4B/4C
CaSki [3] = assay: MTT cytotoxicity assay, CaSki; conditions: read-out: cytotoxicity IC50 CasKi; Tables 3A/4B/4C; MTT assay
TOV21G = assay: MTT cytotoxicity assay, TOV21G; conditions: read-out: cytotoxicity IC50 TOV21G; Tables 3A/4B/4C; MTT assay
TC1-Lu = assay: MTT cytotoxicity assay, TC1-Lu; conditions: read-out: cytotoxicity IC50 TC1-Lu; Tables 3A/4B/4C; MTT assay
HEC-1A = assay: MTT cytotoxicity assay, HEC-1A; conditions: read-out: cytotoxicity IC50 HEC-1A, Tables 3A/4B/4C
HeLa [4] = tested on: HeLa
SiHa [5] = tested on: SiHa
CaSki [6] = tested on: CaSki
multiple myeloma = conditions: cited from earlier work

Compound `N.N.[Cl][Pt][Cl]` [CP, Cisplatin] has an IC50 (PEA2) of 9.85 µM and an IC50 (PEO4) of 19.5 µM.

In the case of `C[C@@H]1/C(=C\c2ccc([N+](=O)[O-])cc2)C(=O)/C(=C/c2ccc([N+](=O)[O-])cc2)CN1C(=O)[C@@H](N)Cc1ccccc1` [RA413R], the IC50 (UWB1.289 + BRCA1) is reported as < 0.02 µM, the IC50 (SKOV3) is reported as 0.161 µM and the IC50 (HeLa [1]) is reported as 0.172 µM. The IC50 (SiHa [2]) was 0.139 µM, the IC50 (KLE) was 1.43 µM and the IC50 (CaSki [3]) was 0.22 µM. For the same compound, the IC50 (TOV21G) was 0.02 µM, the IC50 (TC1-Lu) was 1.79 µM and the IC50 (HEC-1A) was 0.268 µM.

Compound `C=CC(=O)N1CC/C(=C\c2ccc(F)c([N+](=O)[O-])c2)C(=O)/C(=C/c2ccc(F)c([N+](=O)[O-])c2)C1` [VLX1570] has an IC50 (HeLa [4]) of 0.111 µM, an IC50 (SiHa [5]) of 0.054 µM and an IC50 (CaSki [6]) of 0.068 µM. It also gave an IC50 (OVCAR3) of 0.018 µM, an IC50 (SKOV3) of 0.128 µM and an IC50 (SKOV3-TR) of 0.3 µM. The IC50 (BR5-FvB1) was 0.25 µM, the IC50 (BR5-Luc) was 0.0048 µM and the IC50 (DLD-BRCA2-Ve) was 8.54 µM. For the same compound, the IC50 (DLD-Seckle) was 0.964 µM, the IC50 (RPE1-ATMKO) was 0.963 µM and the “dose at which anti-myeloma effects were observed” value (multiple myeloma; phase I patients (70)) was ≥ 0.6 mg/kg. For the same compound, the adverse events (multiple myeloma; two patients at the 1.2 mg/kg dose level (70)) was “severe, abrupt, and progressive respiratory insufficiency, culminating in death”.
